Columns and labels:
Assay type in all cases: in vivo
[1] = test system: wheat (Triticum aestivum); experiment: Test A pre-/postemergence plant response
Method in brief: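 Scores reflect visual plant injury relative to untreated controls on a 0–100 scale, recorded approximately 10 days after simultaneous preemergence soil spraying and postemergence spraying of one- to two-leaf seedlings grown in loam–sand.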

[2] = test system: cocklebur (Xanthium strumarium); experiment: Test B pre-/postemergence plant response; details: for Cocklebur plant response rating: 8 g ai/ha
Method in brief: (§1)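 Seeds were sown and sprayed preemergence, while plants at 2 to 18 cm (1- to 4-leaf stage) got postemergence sprays. Compounds were formulated in a non-phytotoxic solvent mixture with surfactant. After 13 to 15 days in a greenhouse, injury was rated visually against untreated controls, 0 (no effect) to 100 (complete control).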

[3] = test system: pigweed (Amaranthus retroflexus); experiment: Test B pre-/postemergence plant response
Method in brief: as §1

[4] = test system: Italian ryegrass (Lolium multiflorum); experiment: Test B pre-/postemergence plant response
Method in brief: as §1

[5] = test system: Russian thistle (Salsola iberica); experiment: Test B pre-/postemergence plant response; details: Preemergence
Method in brief: as §1

[6] = test system: common ragweed (Ambrosia elation); experiment: Test B pre-/postemergence plant response
Method in brief: as §1

[7] = test system: yellow nutsedge (Cyperus esculentus); experiment: Test B pre-/postemergence plant response
Method in brief: as §1

[8] = test system: eastern black (E.B.) nightshade (Solanum ptycanthum); experiment: Test B pre-/postemergence plant response; details: Preemergence
Method in brief: as §1

[9] = test system: goosegrass (Eleusine indica); experiment: Test B pre-/postemergence plant response
Method in brief: as §1

[10] = test system: soybean (Glycine max); experiment: Test B pre-/postemergence plant response
Method in brief: as §1

[11] = test system: woolly cupgrass (Eriochloa villosa); experiment: Test B pre-/postemergence plant response
Method in brief: as §1

[12] = test system: kochia (Kochia scoparia); experiment: Test B pre-/postemergence plant response
Method in brief: as §1

[13] = Postemergence, 31 g ai/ha, 0 to 100 scale (0 no effect, 100 complete control)
[14] = Postemergence, 125 g ai/ha, 0 to 100 scale, 0 no effect, 100 complete control
[15] = Preemergence, 31 g ai/ha, 0 to 100 scale, 0 is no effect, 100 is complete control
[16] = Preemergence, 125 g ai/ha, 0 to 100 scale (0 no effect, 100 complete control)
[17] = Postemergence, 16 g ai/ha, scale 0 to 100
[18] = Postemergence, 31 g ai/ha, scale 0 to 100
[19] = Postemergence, 62 g ai/ha, scale 0 to 100, 0 no effect, 100 complete control
[20] = Preemergence, 16 g ai/ha, scale 0 to 100 (0 no effect, 100 complete control)
[21] = Preemergence, 31 g ai/ha, scale 0 to 100 (0 no effect, 100 complete control)
[22] = Preemergence, 62 g ai/ha, 0 to 100 scale, 0 no effect, 100 complete control
[23] = 8 g ai/ha, postemergence, 0-100 scale
[24] = 16 g ai/ha, postemergence, 0-100 scale
[25] = Preemergence, 8 g ai/ha, scale 0 to 100
[26] = Preemergence, 16 g ai/ha, scale 0 to 100
[27] = 31 g ai/ha, scale 0 to 100 (0 no effect, 100 complete control)
[28] = 62 g ai/ha, 0 to 100 scale, 0 no effect, 100 complete control
[29] = Postemergence, 31 g ai/ha, scale 0 to 100, 0 no effect, 100 complete control
[30] = Preemergence, 31 g ai/ha, 0 to 100 scale, 0 no effect, 100 complete control
[31] = Preemergence, 62 g ai/ha, scale 0 to 100
[32] = 16 g ai/ha, scale 0 to 100 (0 no effect, 100 complete control)

SMILES: CCc1cc(-c2ccc(Br)cc2)nn1-c1c(O)cnn(C)c1=O [Compound 61]
- Plant response rating, Wheat [1, 13]: 80
- Plant response rating, Wheat [1, 14]: 90
- Plant response rating, Wheat [1, 15]: 70
- Plant response rating, Wheat [1, 16]: 90
- Cocklebur plant response rating ([2]; postemergence, 0-100 scale): 0
- Plant response rating, Cocklebur [2, 17]: 0
- Plant response rating, Cocklebur [2, 18]: 0
- Plant response rating, Cocklebur [2, 19]: 0
- Plant response rating, Cocklebur [2, 20]: 0
- Plant response rating, Cocklebur [2, 21]: 0
- Plant response rating, Cocklebur [2, 22]: 0
- Cocklebur plant response rating ([2]; Preemergence, scale 0 to 100): 0
- Pigweed plant response rating [3, 23]: 0
- Pigweed plant response rating [3, 24]: 0
- Plant response rating, Pigweed [3, 18]: 0
- Plant response rating, Pigweed [3, 19]: 0
- Plant response rating, Pigweed [3, 21]: 0
- Plant response rating, Pigweed [3, 22]: 0
- Pigweed plant response rating [3, 25]: 0
- Pigweed plant response rating [3, 26]: 0
- Ryegrass, Italian plant response rating [4, 23]: 100
- Ryegrass, Italian plant response rating [4, 24]: 100
- Plant response rating, Ryegrass, Italian [4, 18]: 100
- Plant response rating, Ryegrass, Italian [4, 19]: 100
- Plant response rating, Ryegrass, Italian [4, 21]: 100
- Plant response rating, Ryegrass, Italian [4, 22]: 100
- Ryegrass, Italian plant response rating [4, 25]: 85
- Ryegrass, Italian plant response rating [4, 26]: 100
- Plant response rating, Russian Thistle [5, 27]: 0
- Plant response rating, Russian Thistle [5, 28]: 0
- Russian Thistle plant response rating ([5]; 8 g ai/ha, scale 0 to 100): 0
- Russian Thistle plant response rating ([5]; 16 g ai/ha, scale 0 to 100): 0
- Ragweed plant response rating [6, 23]: 0
- Ragweed plant response rating [6, 24]: 0
- Plant response rating, Ragweed [6, 18]: 0
- Plant response rating, Ragweed [6, 19]: 0
- Plant response rating, Ragweed [6, 21]: 0
- Plant response rating, Ragweed [6, 22]: 0
- Ragweed plant response rating [6, 25]: 0
- Ragweed plant response rating [6, 26]: 0
- Nutsedge, Yellow plant response rating [7, 23]: 0
- Nutsedge, Yellow plant response rating [7, 24]: 0
- Plant response rating, Nutsedge, Yellow [7, 18]: 0
- Plant response rating, Nutsedge, Yellow [7, 19]: 0
- Plant response rating, Nutsedge, Yellow [7, 21]: 0
- Plant response rating, Nutsedge, Yellow [7, 22]: 0
- Nutsedge, Yellow plant response rating [7, 25]: 0
- Nutsedge, Yellow plant response rating [7, 26]: 0
- Plant response rating, Nightshade, E. B. [8, 27]: 0
- Plant response rating, Nightshade, E. B. [8, 28]: 0
- Nightshade, E. B. plant response rating ([8]; 16 g ai/ha, scale 0 to 100): 0
- Goosegrass plant response rating [9, 23]: 98
- Goosegrass plant response rating [9, 24]: 100
- Plant response rating, Goosegrass [9, 18]: 100
- Plant response rating, Goosegrass [9, 19]: 100
- Plant response rating, Goosegrass [9, 21]: 100
- Plant response rating, Goosegrass [9, 22]: 100
- Goosegrass plant response rating [9, 25]: 80
- Goosegrass plant response rating [9, 26]: 100
- Plant response rating, Soybean [10, 21]: 0
- Plant response rating, Soybean [10, 22]: 0
- Soybean plant response rating [10, 25]: 0
- Soybean plant response rating [10, 26]: 0
- Cupgrass, Woolly plant response rating [11, 23]: 98
- Plant response rating, Cupgrass, Woolly [11, 17]: 100
- Plant response rating, Cupgrass, Woolly [11, 18]: 100
- Plant response rating, Cupgrass, Woolly [11, 19]: 100
- Plant response rating, Cupgrass, Woolly [11, 21]: 100
- Plant response rating, Cupgrass, Woolly [11, 22]: 100
- Cupgrass, Woolly plant response rating [11, 25]: 80
- Cupgrass, Woolly plant response rating [11, 26]: 98
- Kochia plant response rating [12, 23]: 0
- Kochia plant response rating [12, 24]: 0
- Plant response rating, Kochia [12, 18]: 35
- Plant response rating, Kochia [12, 19]: 45
- Plant response rating, Kochia [12, 21]: 0
- Plant response rating, Kochia [12, 22]: 0

SMILES: CCc1cc(-c2ccc(Cl)cc2)nn1-c1c(OC(=O)C(C)(C)C)cnn(C)c1=O [Compound 40]
- Plant response rating, Wheat [1, 13]: 70
- Plant response rating, Wheat [1, 14]: 90
- Plant response rating, Wheat [1, 15]: 50
- Plant response rating, Wheat [1, 16]: 90
- Cocklebur plant response rating ([2]; postemergence, 0-100 scale): 0
- Plant response rating, Cocklebur [2, 17]: 0
- Plant response rating, Cocklebur [2, 29]: 0
- Plant response rating, Cocklebur [2, 19]: 0
- Plant response rating, Cocklebur [2, 20]: 0
- Plant response rating, Cocklebur [2, 30]: 0
- Plant response rating, Cocklebur [2, 31]: 0
- Cocklebur plant response rating ([2]; Preemergence, scale 0 to 100): 0
- Pigweed plant response rating [3, 23]: 0
- Plant response rating, Pigweed [3, 17]: 0
- Plant response rating, Pigweed [3, 29]: 0
- Plant response rating, Pigweed [3, 19]: 0
- Plant response rating, Pigweed [3, 20]: 0
- Plant response rating, Pigweed [3, 21]: 0
- Plant response rating, Pigweed [3, 31]: 0
- Pigweed plant response rating [3, 25]: 0
- Ryegrass, Italian plant response rating [4, 23]: 80
- Plant response rating, Ryegrass, Italian [4, 17]: 100
- Plant response rating, Ryegrass, Italian [4, 29]: 100
- Plant response rating, Ryegrass, Italian [4, 19]: 100
- Plant response rating, Ryegrass, Italian [4, 20]: 95
- Plant response rating, Ryegrass, Italian [4, 21]: 95
- Plant response rating, Ryegrass, Italian [4, 31]: 100
- Ryegrass, Italian plant response rating [4, 25]: 80
- Plant response rating, Russian Thistle [5, 32]: 0
- Plant response rating, Russian Thistle [5, 27]: 0
- Plant response rating, Russian Thistle ([5]; 62 g ai/ha, scale 0 to 100): 0
- Russian Thistle plant response rating ([5]; 8 g ai/ha, scale 0 to 100): 0
- Ragweed plant response rating [6, 23]: 0
- Plant response rating, Ragweed [6, 17]: 0
- Plant response rating, Ragweed [6, 29]: 0
- Plant response rating, Ragweed [6, 19]: 0
- Plant response rating, Ragweed [6, 20]: 0
- Plant response rating, Ragweed [6, 21]: 0
- Plant response rating, Ragweed [6, 31]: 0
- Ragweed plant response rating [6, 25]: 0
- Nutsedge, Yellow plant response rating [7, 23]: 0
- Plant response rating, Nutsedge, Yellow [7, 17]: 0
- Plant response rating, Nutsedge, Yellow [7, 29]: 0
- Plant response rating, Nutsedge, Yellow [7, 19]: 0
- Plant response rating, Nutsedge, Yellow [7, 20]: 0
- Plant response rating, Nutsedge, Yellow [7, 21]: 0
- Plant response rating, Nutsedge, Yellow [7, 31]: 0
- Nutsedge, Yellow plant response rating [7, 25]: 0
- Plant response rating, Nightshade, E. B. [8, 32]: 0
- Plant response rating, Nightshade, E. B. [8, 27]: 0
- Plant response rating, Nightshade, E. B. ([8]; 62 g ai/ha, scale 0 to 100): 0
- Nightshade, E. B. plant response rating ([8]; 8 g ai/ha, scale 0 to 100): 0
- Goosegrass plant response rating [9, 23]: 60
- Plant response rating, Goosegrass [9, 17]: 75
- Plant response rating, Goosegrass [9, 29]: 80
- Plant response rating, Goosegrass [9, 19]: 100
- Plant response rating, Goosegrass [9, 20]: 100
- Plant response rating, Goosegrass [9, 30]: 100
- Plant response rating, Goosegrass [9, 31]: 100
- Goosegrass plant response rating [9, 25]: 98
- Soybean plant response rating [10, 23]: 0
- Plant response rating, Soybean [10, 17]: 0
- Plant response rating, Soybean [10, 19]: 0
- Plant response rating, Soybean [10, 20]: 0
- Plant response rating, Soybean [10, 21]: 0
- Plant response rating, Soybean [10, 31]: 0
- Soybean plant response rating [10, 25]: 0
- Cupgrass, Woolly plant response rating [11, 23]: 98
- Plant response rating, Cupgrass, Woolly [11, 17]: 98
- Plant response rating, Cupgrass, Woolly [11, 29]: 100
- Plant response rating, Cupgrass, Woolly [11, 19]: 100
- Plant response rating, Cupgrass, Woolly [11, 20]: 100
- Plant response rating, Cupgrass, Woolly [11, 30]: 100
- Plant response rating, Cupgrass, Woolly [11, 31]: 100
- Cupgrass, Woolly plant response rating [11, 25]: 15
- Kochia plant response rating [12, 23]: 0
- Plant response rating, Kochia [12, 17]: 0
- Plant response rating, Kochia [12, 29]: 0
- Plant response rating, Kochia [12, 19]: 0
- Plant response rating, Kochia [12, 20]: 0
- Plant response rating, Kochia [12, 30]: 0
- Plant response rating, Kochia [12, 31]: 0
- Kochia plant response rating [12, 25]: 0

From patent publication US20100267561A1, “HERBICIDAL PYRIDAZINONE DERIVATIVES” (priority 2007, published 2010)
